Patent US10774051B2, “6-membered heterocyclic derivatives and pharmaceutical composition comprising the same” (Shionogi & Co., Ltd., priority 2015, dated 2020)

biological target: human P2X7 receptor (Homo sapiens, UniProt Q99572, R270H/Y155H); assay: Evaluation of human P2X7 receptor inhibitory activity (Yo-Pro uptake, BzATP stimulation, FLIPR TETRA); assay type: cell-based; conditions: 1321N1 cells stably expressing human P2X7 receptor; BzATP stimulation, Yo-Pro uptake; read-out: IC50 (antagonistic activity for the human P2X7 receptor)
Procedure, shortened: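 1321N1 cells stably expressing human P2X7 (T606C/G952A SNP variant), in HBSS buffer pH 7.4-7.5 with Yo-Pro, stimulated with BzATP; compound added 8 min after agonist. Fluorescence followed for 20 min on FLIPR; max-minus-min change gave % inhibition, IC50 by logistic fit.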

Row | SMILES | IC50 [nM]
1 | COc1cn(Cc2ccccc2)c(Nc2cc3[nH]ccc3cc2C)nc1=O [Compound I-0618] | 7
2 | COc1cn(Cc2cc(F)c(F)c(F)c2)c(Nc2cccc3sccc23)nc1=O [Compound I-0626] | 4
3 | COc1cn(Cc2ccc(F)c(Cl)c2)c(Nc2cccc3occc23)nc1=O [Compound I-0636] | 50
4 | COc1cn(Cc2cc(F)cc(F)c2)c(Nc2cccc3c(=O)[nH]ccc23)nc1=O [Compound I-0652] | 34
5 | COc1cn(Cc2cc(F)cc(Cl)c2)c(Nc2cccc3sccc23)nc1=O [Compound I-0670] | 20
6 | COc1ccccc1Nc1nc(=O)c(OC)cn1Cc1ccc(F)c(F)c1 [Compound I-0675] | 190

same assay, conditions: antagonistic activity for the human P2X7 receptor; read-out: IC50

Row | SMILES | IC50 [nM]
7 | COc1cn(Cc2cc(F)cc(F)c2)c(Nc2cc(CO)c(C)cc2C)nc1=O [Compound I-0600] | < 10
8 | COc1cc(C)cc(Nc2nc(=O)c(OC)cn2Cc2cc(F)c(F)c(F)c2)c1C [Compound I-0601] | < 10
9 | COc1cn(Cc2cc(F)c(F)c(F)c2)c(Nc2cccc3[nH]c(=O)ccc23)nc1=O [Compound I-0602] | 100 to 500
10 | COc1cn(Cc2cc(F)c(F)c(F)c2)c(Nc2cccc3c(=O)[nH]ccc23)nc1=O [Compound I-0603] | 10 to 100
11 | COc1cn(Cc2ccc(F)c(F)c2)c(Nc2cc(-c3ncco3)ccc2C)nc1=O [Compound I-0604] | < 10
12 | COc1cn(Cc2ccc(F)c(F)c2)c(Nc2cc(S(C)(=O)=O)c(C)cc2C)nc1=O [Compound I-0605] | 10 to 100
13 | COc1cn(Cc2ccc(F)c(F)c2)c(Nc2cccc(SC)c2C)nc1=O [Compound I-0606] | < 10
14 | COc1cn(Cc2cc(F)c(F)c(F)c2)c(Nc2cc(C)c(OC(F)F)cc2C)nc1=O [Compound I-0607] | < 10
15 | COc1ccc(Nc2nc(=O)c(OC)cn2Cc2cc(F)cc(Cl)c2)c(C)c1 [Compound I-0608] | 10 to 100
16 | COc1cn(Cc2cc(F)cc(Cl)c2)c(Nc2ccc(OC(F)(F)F)cc2C)nc1=O [Compound I-0609] | 100 to 500
17 | COc1c(C)ccc(Nc2nc(=O)c(OC)cn2Cc2cc(F)cc(Cl)c2)c1C [Compound I-0610] | 10 to 100
18 | CCc1cc(Cl)ccc1Nc1nc(=O)c(OC)cn1Cc1cc(F)cc(Cl)c1 [Compound I-0611] | 10 to 100
19 | COc1cn(Cc2cc(F)cc(Cl)c2)c(Nc2ccc(N3CCOCC3)cc2C)nc1=O [Compound I-0612] | 100 to 500
20 | COc1cn(Cc2cc(F)cc(Cl)c2)c(Nc2ccc(OC(F)F)cc2C)nc1=O [Compound I-0613] | 10 to 100
21 | COc1cc(C)c(Nc2nc(=O)c(OC)cn2Cc2cccc(F)c2)cc1Cl [Compound I-0614] | < 10
22 | COc1cc(C)c(Nc2nc(=O)c(OC)cn2Cc2ccc(F)cc2)cc1Cl [Compound I-0615] | < 10
23 | COc1cc(C)c(Nc2nc(=O)c(OC)cn2Cc2ccc(F)c(F)c2)cc1Cl [Compound I-0616] | < 10
24 | COc1cc(C)c(Nc2nc(=O)c(OC)cn2Cc2cc(F)cc(F)c2)cc1Cl [Compound I-0617] | < 10
25 | COc1cn(Cc2ccc(F)c(Cl)c2)c(Nc2cc3[nH]ccc3cc2C)nc1=O [Compound I-0619] | < 10
26 | COc1cn(Cc2cc(F)cc(F)c2)c(Nc2cc3[nH]ccc3cc2C)nc1=O [Compound I-0620] | < 10
27 | CCc1ccc(Br)cc1Nc1nc(=O)c(OC)cn1Cc1ccccc1 [Compound I-0621] | < 10
28 | COc1cn(Cc2ccccc2)c(Nc2ccc(N(C)C)cc2C)nc1=O [Compound I-0622] | 10 to 100
29 | COc1cc(C)c(Nc2nc(=O)c(OC)cn2Cc2cc(F)c(F)c(F)c2)cc1OC [Compound I-0623] | < 10
30 | CCOc1cc(C)c(Nc2nc(=O)c(OC)cn2Cc2cc(F)c(F)c(F)c2)cc1C [Compound I-0624] | < 10
31 | COc1ccc(C)c(Nc2nc(=O)c(OC)cn2Cc2cc(F)c(F)c(F)c2)c1 [Compound I-0625] | < 10

Row | SMILES | IC50 [nM]
32 | COc1ccc(C)c(Nc2nc(=O)c(OC)cn2Cc2cccc(Cl)c2)c1 [Compound I-0627] | 10 to 100
33 | COc1cn(Cc2ccccc2)c(Nc2ccc(OC(F)(F)F)cc2C)nc1=O [Compound I-0628] | 100 to 500
34 | COc1cn(Cc2cc(F)cc(F)c2)c(Nc2ccc(OC(F)(F)F)cc2C)nc1=O [Compound I-0629] | 10 to 100
35 | CCc1cc(Br)ccc1Nc1nc(=O)c(OC)cn1Cc1cc(F)cc(F)c1 [Compound I-0630] | < 10
36 | CCc1cc(Br)ccc1Nc1nc(=O)c(OC)cn1Cc1ccc(F)c(Cl)c1 [Compound I-0631] | 10 to 100
37 | COc1cc(C)c(Nc2nc(=O)c(OC)cn2Cc2cc(F)c(F)c(F)c2)cc1C [Compound I-0632] | < 10
38 | COc1cn(Cc2cc(F)c(F)c(F)c2)c(Nc2cc(OC(C)C)ccc2C)nc1=O [Compound I-0633] | < 10
39 | COc1cn(Cc2ccc(C(F)(F)F)c(F)c2)c(Nc2cccc(Cl)c2C)nc1=O [Compound I-0634] | 100 to 500
40 | COc1cn(Cc2ccc(F)c(C(F)(F)F)c2)c(Nc2cccc(Cl)c2C)nc1=O [Compound I-0635] | 10 to 100
41 | CCc1ccc(OC)cc1Nc1nc(=O)c(OC)cn1Cc1cc(F)cc(F)c1 [Compound I-0637] | < 10
42 | COc1cccc(Nc2nc(=O)c(OC)cn2Cc2cc(F)cc(F)c2)c1Cl [Compound I-0638] | < 10
43 | COc1ccc(Cl)c(Nc2nc(=O)c(OC)cn2Cc2cc(F)cc(F)c2)c1 [Compound I-0639] | 10 to 100
44 | COc1cn(Cc2cc(F)cc(F)c2)c(Nc2cccc3occc23)nc1=O [Compound I-0640] | 10 to 100
45 | COc1cn(Cc2cccc(F)c2)c(Nc2cccc(OC(F)F)c2C)nc1=O [Compound I-0641] | 10 to 100
46 | COc1cccc(Nc2nc(=O)c(OC)cn2Cc2cccc(F)c2)c1C [Compound I-0642] | < 10
47 | COc1cn(Cc2cccc(F)c2)c(Nc2cccc(C)c2Cl)nc1=O [Compound I-0643] | 10 to 100
48 | COc1cn(Cc2cccc(F)c2)c(Nc2cc(C)ccc2C)nc1=O [Compound I-0644] | 10 to 100
49 | COc1cn(Cc2ccc(F)c(F)c2)c(Nc2cc(C)cc3[nH]ccc23)nc1=O [Compound I-0645] | 10 to 100
50 | COc1cn(Cc2ccc(F)c(F)c2)c(Nc2cc(N3CCCC3=O)ccc2C)nc1=O [Compound I-0646] | 10 to 100
51 | COc1cn(Cc2cc(F)cc(Cl)c2)c(Nc2cc(N3CCCC3=O)ccc2C)nc1=O [Compound I-0647] | 10 to 100
52 | COc1cn(Cc2cc(F)cc(F)c2)c(Nc2cc(N3CCCC3=O)ccc2C)nc1=O [Compound I-0648] | 10 to 100
53 | COc1cn(Cc2cc(F)cc(Cl)c2)c(Nc2cc(C)cc3[nH]ccc23)nc1=O [Compound I-0649] | 10 to 100
54 | COc1cn(Cc2cc(F)cc(F)c2)c(Nc2cc(C)cc3[nH]ccc23)nc1=O [Compound I-0650] | 10 to 100
55 | COc1cn(Cc2cc(F)cc(Cl)c2)c(Nc2cccc3c(=O)[nH]ccc23)nc1=O [Compound I-0651] | 10 to 100
56 | COc1cn(Cc2ccc(F)c(F)c2)c(Nc2cc(-n3cccc3)ccc2C)nc1=O [Compound I-0653] | < 10

Row | SMILES | IC50 [nM]
57 | COc1cn(Cc2cc(F)cc(Cl)c2)c(Nc2cc(-n3cccc3)ccc2C)nc1=O [Compound I-0654] | 10 to 100
58 | COc1cn(Cc2cc(F)cc(F)c2)c(Nc2cc(-n3cccc3)ccc2C)nc1=O [Compound I-0655] | 10 to 100
59 | CCc1cc(Br)ccc1Nc1nc(=O)c(OC)cn1Cc1cc(F)cc(Cl)c1 [Compound I-0656] | 10 to 100
60 | CCc1ccc(OC)cc1Nc1nc(=O)c(OC)cn1Cc1cc(F)cc(Cl)c1 [Compound I-0657] | 10 to 100
61 | COc1cn(Cc2ccccc2)c(Nc2cc(-c3ccc(C)o3)ccc2C)nc1=O [Compound I-0658] | 10 to 100
62 | COc1cn(Cc2ccc(F)c(Cl)c2)c(Nc2cc(-c3ccc(C)o3)ccc2C)nc1=O [Compound I-0659] | 10 to 100
63 | COc1cn(Cc2ccc(F)cc2)c(Nc2cccc(OC(F)F)c2C)nc1=O [Compound I-0660] | 10 to 100
64 | COc1cccc(Nc2nc(=O)c(OC)cn2Cc2ccc(F)cc2)c1C [Compound I-0661] | < 10
65 | COc1cn(Cc2ccc(F)cc2)c(Nc2cccc(C)c2Cl)nc1=O [Compound I-0662] | 10 to 100
66 | COc1cn(Cc2ccccc2)c(Nc2cc(-c3cnccn3)ccc2C)nc1=O [Compound I-0663] | 10 to 100
67 | COc1cn(Cc2ccc(F)c(Cl)c2)c(Nc2cc(-c3cnccn3)ccc2C)nc1=O [Compound I-0664] | < 10
68 | COc1cn(Cc2ccc(F)c(F)c2)c(Nc2cc3sc(C)nc3cc2C)nc1=O [Compound I-0665] | < 10
69 | COc1cn(Cc2cc(F)cc(Cl)c2)c(Nc2cc(Cl)c(Cl)cc2C)nc1=O [Compound I-0666] | 100 to 500
70 | COc1cn(Cc2cc(F)cc(Cl)c2)c(Nc2cc(-c3nnco3)ccc2C)nc1=O [Compound I-0667] | 10 to 100
71 | COc1cn(Cc2cc(F)cc(Cl)c2)c(Nc2cc(-c3ncco3)ccc2C)nc1=O [Compound I-0668] | 10 to 100
72 | COc1cn(Cc2cc(F)cc(Cl)c2)c(Nc2cc3sc(C)nc3cc2C)nc1=O [Compound I-0669] | 10 to 100
73 | COc1cc(C)c(Nc2nc(=O)c(OC)cn2Cc2cccc(Cl)c2)cc1Cl [Compound I-0671] | < 10
74 | COc1cc(C)c(Nc2nc(=O)c(OC)cn2Cc2cc(F)cc(Cl)c2)cc1Cl [Compound I-0672] | < 10
75 | CCc1ccc(OC)cc1Nc1nc(=O)c(OC)cn1Cc1cc(F)c(F)c(F)c1 [Compound I-0673] | < 10
76 | CCc1ccccc1Nc1nc(=O)c(OC)cn1Cc1ccc(F)c(F)c1 [Compound I-0674] | 10 to 100
77 | CCOc1ccc(Nc2nc(=O)c(OC)cn2Cc2ccccc2)c(C)c1 [Compound I-0676] | 100 to 500
78 | CCOc1ccc(Nc2nc(=O)c(OC)cn2Cc2cccc(Cl)c2)c(C)c1 [Compound I-0677] | 10 to 100
79 | CCOc1ccc(Nc2nc(=O)c(OC)cn2Cc2ccc(F)c(F)c2)c(C)c1 [Compound I-0678] | < 10
